The source of these data is US9310359B2, “Analyte quantification using flow induced dispersion analysis” (FIDA-TECH APS, priority 2010, dated 2016).

Read-outs that look alike come from different tables or passages of the source.

Series [1] is described as follows: Diffusion coefficients from FIDA peak variance (eq 2, capillary radius 25 μm). The settings on record: 67 mM phosphate buffer pH 7.4, 25° C., calculated using eq 2, capillary radius 25 μm; for Diffusion coefficient of the complex DAL: complex with βCD. Type of series: physicochemical. The source says:
According to Taylor-Aris theory the temporal peak variance is related to ligand (affinity probe) diffusivity (13,14). Under optimal conditions for a pressure driven flow in a cylindrical capillary the peak variance is inversely proportional to the diffusion coefficient, D, according to (15): [formula] where Rc is the radius of the capillary tube, and tR is the peak appearance time. In the presence of the analyte βCD, the observed variance can be attributed to α-naphthol and the complex between α-naphthol and βCD. We shall assume that the observed variance is a weighted average depending on the fraction of free α-naphthol, x. This assumption is valid when the complexation kinetics is fast compared to the timescale of the experiment (16). […] The experimental points are found to be well described by the model and the estimated binding constants are in good agreement with literature data considering that other methods and different conditions were used (table 1). In table 1, the diffusion coefficients of the analytes and complexes calculated using eq 2 and assuming a capillary radius of 25 μm are also listed. […] Samples were run in triplicate.

Series [2] in a line: Flow Induced Dispersion Analysis (FIDA) equilibrium binding constant with βCD. The settings on record: complex with βCD, 67 mM phosphate buffer pH 7.4, 25° C., ±standard deviation.
Experimental: The sample volume introduced into the capillary in these experiments corresponds to 9 nL. […] The peak shape may be fitted to a Gaussian peak shape (described in the examples); in this way the temporal peak variance σ^2 can be estimated.
[formula] where σA^2 is the observed variance obtained from a Gaussian fit in the absence of an interacting analyte and σAL^2 is the variance corresponding to the complex AL. […] Corrections due to sample injection and detector variances may be introduced, but as they are small and constant under the present conditions they are neglected.
[formula] where [L] is the concentration of free analyte. […]
In a series of experiments the concentration of βCD in the background electrolyte was varied and the peak variances determined.
βCD, α-naphthol and naproxen was obtained form Sigma-Aldrich. […] The amount of water present in βCD was determined by gravimetric analysis upon drying to constant weight in vacuo at ˜60° C. […]
The conditions of series [3]: ACE; complex with βCD; 67 mM phosphate buffer pH 7.4; ±standard deviation.
Experimental: Flow induced dispersion and capillary electrophoresis experiments were carried out using an Agilent ^3DCE instrument (Agilent Technologies, Waldbronn, Germany). Uncoated fused silica capillaries of 48.5 cm total length (50 μm i.d., 360 μm o.d.) and 40.5 cm to the detection window were obtained from Polymicro Technologies (Phoenix, Ariz., USA).
New capillaries were conditioned with 1 M NaOH (45 min), Milli-Q water (30 min) and 67 mM phosphate buffer pH 7.4 (30 min). Before a series of experiments the capillary was refreshed by flushing with 1 M NaOH (10 min) and 67 mM phosphate buffer pH 7.4 (10 min). In FIDA, the capillary was preconditioned by flushing the capillary with 0.1 M NaOH (2 min) and run buffer (2 min). The sample was injected by applying a pressure of 50 mbar for 5 sec. Subsequently a pressure of 50 mbar was applied across the capillary to force the sample through it. Finally the sample was detected by UV absorbance at 230 nm. Samples were run in triplicate. The peak variance was obtained by fitting the UV signal to a Gaussian peak shape. The Gaussian in addition to peak variance and peak appearance time the function incorporates a constant A to account for signal height and a constant y0 to account for a possible detector offset.
For series [4] the following is noted: literature data (18, 19); cited from earlier work.
The conditions of series [5]: complex with βCD; literature data (17); cited from earlier work.

`COc1ccc2cc([C@H](C)C(=O)O)ccc2c1` [Naproxen, naproxen]: the “Diffusion coefficient of the free analyte DA” value in series [1] is given as 5.6 · 10^−6 cm^2 s^−1; in series [4], 5.8 · 10^−6g cm^2 s^−1. In addition, the “Diffusion coefficient of the complex DAL” value in series [1] is 2.8 · 10^−6 cm^2 s^−1. Moreover, the “Equilibrium binding constant K” value is reported as 1050 (±185) M^−1 in series [2] and 650 (±28)^f M^−1 in series [3].
`Oc1cccc2ccccc12` [α-Naphthol, α-naphthol]: the “Diffusion coefficient of the free analyte DA” value in series [1] is 9.3 · 10^−6 cm^2 s^−1; in series [4], 9.2 · 10^−6e cm^2 s^−1. Further, the “Diffusion coefficient of the complex DAL” value in series [1] is on record as 3.3 · 10^−6 cm^2 s^−1. Besides, the figures for the “Equilibrium binding constant K” value in series [2] and in series [5] were 2400 (±240) M^−1 and 1250^d M^−1, respectively.
